The EC50 is the concentration that produces a half-maximal response.

The assay has as its target T1, human IL-17AA (Homo sapiens, UniProt Q16552).
T1 construct: host or cells: HEK (human embryonic kidney) cells
T1 sequence (Q16552 24-155) 1: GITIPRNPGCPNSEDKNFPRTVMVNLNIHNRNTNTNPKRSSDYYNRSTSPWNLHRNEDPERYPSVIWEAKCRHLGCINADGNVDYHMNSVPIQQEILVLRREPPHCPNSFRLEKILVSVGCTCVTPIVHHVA
T1 sequence (Q16552 24-155) 2: T1 sequence (Q16552 24-155) 1
The experiment in a line: IL-8 release assay in human epithelial keratinocytes adult (HEKa). The assay is classed as cell-based. The settings on record: HEKa cells; 3 ng/mL HEK-human IL-17AA + 10 ng/mL human TNFalpha; 68-72 hours; IL-8 by HTRF; read-out: Rel EC50 IL-8 release assay. The procedure:
Example 8: IL-8 Release Assay in Human Epithelial Keratinocytes Adult (HEKa)
Keratinocytes were seeded at 3500 cells/well in 384-well ViewPlates (Perkin Elmer) in Epilife medium (Thermo Fisher) containing human keratinocyte growth supplement (HKGS) without hydrocortisone and incubated in a humid incubator at 37° C., 5% CO2, overnight. The following day growth medium was removed and 25 μl fresh Epilife medium was added. 75 nL test compound in100% DMSO was added into each well reserved for test compounds, by the use of acoustic pipetting. The remaining wells received an equal volume of DMSO only, as vehicle control, or terfenadine in DMSO, as a positive control for any cytotoxic compounds. Subsequently, another 25 μL Epilife medium was added to each well. Finally, wells containing test compounds and wells prepared to yield maximum stimulation received 25 μL of 9 ng/mL recombinant, human embryonic kidney cell (HEK)-derived human IL-17AA+30 ng/mL human TNF-alpha, in Epilife medium. Wells prepared to define 100% inhibition of IL-17 effects received 25 μL of 30 ng/mL human TNF-alpha alone, in Epilife medium. Final concentrations were 3 ng/mL HEK-human IL-17AA+10 ng/mL human TNFalpha (maximum stimulation) and 10 ng/mL human TNFalpha alone (100% inhibition, Emax), respectively. Cells were incubated for 68-72 hours in the incubator. IL-8 released from the cells was measured by the use of a commercial homogenous time-resolved fluorescence (HTRF) assay (CisBio). 2 μL cell culture supernatant was transferred to a 384-well Proxiplate. 5 μL HTRF reagent was added and the plates were incubated sealed in the dark for 3-22 hours at room temperature. Time-resolved fluorescence was read at 665 vs 620 nm, with excitation at 320 nm, and IL-8 levels were calculated as percent of controls. Reduction of the amount of secreted IL-8 indicates decreased IL-17 signaling. Concentration response curves were fitted by the use of a four-parameter logistic equation. Relative IC50 and Emax were reported from curves showing acceptable fit (r^2>0.9). Cytotoxicity was measured in the cell-containing Viewplates following addition of 7 μL PrestoBlue (Thermo Fisher) and incubation for 2.5-3 hours at room temperature, by measuring fluorescence at 615 nm (excitation at 535 nm). Fluorescence was directly proportional to the amount of metabolic activity. Reduction of fluorescence signal indicated cytotoxicity.
Compounds of the present invention were tested in the IL-8 release assay in human epithelial keratinocytes.
On the technique in general: Time-resolved FRET reads energy transfer from a long-lived donor to a nearby acceptor.
Regarding `Cc1cc(-c2nnc(C(C(=O)Nc3ccc(-c4c(C)n[nH]c4C)cc3)C(C3CC3)C3CC3)[nH]2)n(C)n1` (centres unmarked) [Example 47, 3,3-dicyclopropyl-N-[4-(3,5-dimethyl-1H-pyrazol-4-yl)phenyl]-2-[5-(2,5-dimethylpyrazol-3-yl)-4H-1,2,4-triazol-3-yl]propanamide], the EC50 is 0.083 µM.
With `COc1cncc(-c2nnc(C(C(=O)Nc3ccc(-c4c(C)n[nH]c4C)cc3)C(C3CC3)C3CC3)[nH]2)c1` (centres unmarked) [Example 48, 3,3-dicyclopropyl-N-[4-(3,5-dimethyl-1H-pyrazol-4-yl)phenyl]-2-[5-(5-methoxy-3-pyridyl)-4H-1,2,4-triazol-3-yl]propanamide], the EC50 worked out at 0.13 µM.
Turning to `COc1ncccc1-c1nnc(C(C(=O)Nc2ccc(-c3c(C)n[nH]c3C)cc2)C(C2CC2)C2CC2)[nH]1` (centres unmarked) [Example 49, 3,3-dicyclopropyl-N-[4-(3,5-dimethyl-1H-pyrazol-4-yl)phenyl]-2-[5-(2-methoxy-3-pyridyl)-4H-1,2,4-triazol-3-yl]propanamide], the EC50 worked out at 0.46 µM.
Take `Cc1cncc(-c2nnc(C(C(=O)Nc3ccc(-c4c(C)n[nH]c4C)cc3)C(C3CC3)C3CC3)[nH]2)c1` (centres unmarked) [Example 50, 3,3-dicyclopropyl-N-[4-(3,5-dimethyl-1H-pyrazol-4-yl)phenyl]-2-[5-(5-methyl-3-pyridyl)-4H-1,2,4-triazol-3-yl]propanamide]: the EC50 stood at 0.11 µM.
Turning to `CCOc1cc(-c2nnc(C(C(=O)Nc3ccc(-c4c(C)n[nH]c4C)cc3)C(C3CC3)C3CC3)[nH]2)ccn1` (centres unmarked) [Example 51, 3,3-dicyclopropyl-N-[4-(3,5-dimethyl-1H-pyrazol-4-yl)phenyl]-2-[5-(2-ethoxy-4-pyridyl)-4H-1,2,4-triazol-3-yl]propanamide], the EC50 amounted to 0.1 µM.
Regarding `Cc1ncccc1-c1nnc(C(C(=O)Nc2ccc(-c3c(C)n[nH]c3C)cc2)C(C2CC2)C2CC2)[nH]1` (centres unmarked) [Example 52, 3,3-dicyclopropyl-N-[4-(3,5-dimethyl-1H-pyrazol-4-yl)phenyl]-2-[5-(2-methyl-3-pyridyl)-4H-1,2,4-triazol-3-yl]propanamide], the EC50 turned out to be 0.18 µM.
Take `Cc1ccncc1-c1nnc(C(C(=O)Nc2ccc(-c3c(C)n[nH]c3C)cc2)C(C2CC2)C2CC2)[nH]1` (centres unmarked) [Example 53, 3,3-dicyclopropyl-N-[4-(3,5-dimethyl-1H-pyrazol-4-yl)phenyl]-2-[5-(4-methyl-3-pyridyl)-4H-1,2,4-triazol-3-yl]propanamide]: the EC50 worked out at 0.073 µM.
Under `Cc1n[nH]c(C)c1-c1ccc(NC(=O)C(c2nnc(-c3ccnc(C(F)(F)F)c3)[nH]2)C(C2CC2)C2CC2)cc1` (centres unmarked) [Example 54, 3,3-dicyclopropyl-N-[4-(3,5-dimethyl-1H-pyrazol-4-yl)phenyl]-2-[5-[2-(trifluoromethyl)-4-pyridyl]-4H-1,2,4-triazol-3-yl]propanamide] stands 0.076 µM; under `Cc1n[nH]c(C)c1-c1ccc(NC(=O)C(c2nnc(-c3ccnc(C(F)F)c3)[nH]2)C(C2CC2)C2CC2)cc1` (centres unmarked) [Example 55, 3,3-dicyclopropyl-2-[5-[2-(difluoromethyl)-4-pyridyl]-4H-1,2,4-triazol-3-yl]-N-[4-(3,5-dimethyl-1H-pyrazol-4-yl)phenyl]propanamide], 0.027 µM.
Turning to `COc1ccncc1-c1nnc(C(C(=O)Nc2ccc(-c3c(C)n[nH]c3C)cc2)C(C2CC2)C2CC2)[nH]1` (centres unmarked) [Example 56, 3,3-dicyclopropyl-N-[4-(3,5-dimethyl-1H-pyrazol-4-yl)phenyl]-2-[5-(4-methoxy-3-pyridyl)-4H-1,2,4-triazol-3-yl]propanamide], the EC50 came out at 0.32 µM.
`Cc1n[nH]c(C)c1-c1ccc(NC(=O)C(c2nnc(-c3ccnn3CCCO)[nH]2)C(C2CC2)C2CC2)cc1` (centres unmarked) [Example 57, 3,3-dicyclopropyl-N-[4-(3,5-dimethyl-1H-pyrazol-4-yl)phenyl]-2-[5-[2-(3-hydroxypropyl)pyrazol-3-yl]-4H-1,2,4-triazol-3-yl]propanamide]: the EC50 was 0.059 µM.
In the case of `Cc1n[nH]c(C)c1-c1ccc(NC(=O)C(c2nnc(-c3ccccn3)[nH]2)C(C2CC2)C2CC2)cc1` (centres unmarked) [Example 58, 3,3-dicyclopropyl-N-[4-(3,5-dimethyl-1H-pyrazol-4-yl)phenyl]-2-[5-(2-pyridyl)-4H-1,2,4-triazol-3-yl]propanamide], the EC50 stood at 0.31 µM.
Regarding `Cc1cccc(-c2nnc(C(C(=O)Nc3ccc(-c4c(C)n[nH]c4C)cc3)C(C3CC3)C3CC3)[nH]2)n1` (centres unmarked) [Example 59, 3,3-dicyclopropyl-N-[4-(3,5-dimethyl-1H-pyrazol-4-yl)phenyl]-2-[5-(6-methyl-2-pyridyl)-4H-1,2,4-triazol-3-yl]propanamide], the EC50 turned out to be 0.045 µM.
For the compound `Cc1cccnc1-c1nnc(C(C(=O)Nc2ccc(-c3c(C)n[nH]c3C)cc2)C(C2CC2)C2CC2)[nH]1` (centres unmarked) [Example 60, 3,3-dicyclopropyl-N-[4-(3,5-dimethyl-1H-pyrazol-4-yl)phenyl]-2-[5-(3-methyl-2-pyridyl)-4H-1,2,4-triazol-3-yl]propanamide], the EC50 was found to be 0.25 µM.
Under `Cc1n[nH]c(C)c1-c1ccc(NC(=O)C(c2nnc(C3CCOCC3)[nH]2)C(C2CC2)C2CC2)cc1` (centres unmarked) [Example 61, 3,3-dicyclopropyl-N-[4-(3,5-dimethyl-1H-pyrazol-4-yl)phenyl]-2-(5-tetrahydropyran-4-yl-4H-1,2,4-triazol-3-yl)propanamide] stands 2.7 µM; under `Cc1n[nH]c(C)c1-c1ccc(NC(=O)C(c2nnc(C3CCOC3)[nH]2)C(C2CC2)C2CC2)cc1` (centres unmarked) [Example 62, 3,3-dicyclopropyl-N-[4-(3,5-dimethyl-1H-pyrazol-4-yl)phenyl]-2-(5-tetrahydrofuran-3-yl-4H-1,2,4-triazol-3-yl)propanamide], 1.6 µM; under `Cc1n[nH]c(C)c1-c1ccc(NC(=O)C(c2nnc(-c3ccnc(C(F)F)c3)[nH]2)C2CCC(F)(F)CC2)cc1` (centres unmarked) [Example 63, 2-(4,4-difluorocyclohexyl)-2-[5-[2-(difluoromethyl)-4-pyridyl]-4H-1,2,4-triazol-3-yl]-N-[4-(3,5-dimethyl-1H-pyrazol-4-yl)phenyl]acetamide], 0.2 µM.
On to `Cc1cc(-c2nnc(C(C(=O)Nc3ccc(-c4c(C)n[nH]c4C)cc3)C3CCC(F)(F)CC3)[nH]2)ccn1` (centres unmarked) [Example 65, 2-(4,4-difluorocyclohexyl)-N-[4-(3,5-dimethyl-1H-pyrazol-4-yl)phenyl]-2-[5-(2-methyl-4-pyridyl)-4H-1,2,4-triazol-3-yl]acetamide], for which the EC50 amounted to 0.52 µM.
On to `COc1cc(-c2nnc(C(C(=O)Nc3ccc(-c4c(C)n[nH]c4C)cc3)C3CCC(F)(F)CC3)[nH]2)ccn1` (centres unmarked) [Example 66, 2-(4,4-difluorocyclohexyl)-N-[4-(3,5-dimethyl-1H-pyrazol-4-yl)phenyl]-2-[5-(2-methoxy-4-pyridyl)-4H-1,2,4-triazol-3-yl]acetamide], for which the EC50 stood at 0.64 µM.
As for `CCn1nccc1-c1cnc(C(C(=O)Nc2ccc(-c3c(C)n[nH]c3C)cc2)C(C2CC2)C2CC2)[nH]1` (centres unmarked) [Example 67, 3,3-dicyclopropyl-N-[4-(3,5-dimethyl-1H-pyrazol-4-yl)phenyl]-2-[5-(2-ethylpyrazol-3-yl)-1H-imidazol-2-yl]propanamide], the EC50 was 0.21 µM.
As for `Cc1n[nH]c(C)c1-c1ccc(NC(=O)C(c2ncc(-c3ccnn3C(C)C)[nH]2)C(C2CC2)C2CC2)cc1` (centres unmarked) [Example 68, 3,3-dicyclopropyl-N-[4-(3,5-dimethyl-1H-pyrazol-4-yl)phenyl]-2-[5-(2-isopropylpyrazol-3-yl)-1H-imidazol-2-yl]propanamide], the EC50 was 0.17 µM.
The value for `COc1cc(-c2cnc(C(C(=O)Nc3ccc(-c4c(C)n[nH]c4C)cc3)C(C3CC3)C3CC3)[nH]2)ccn1` (centres unmarked) [Example 69, 3,3-dicyclopropyl-N-[4-(3,5-dimethyl-1H-pyrazol-4-yl)phenyl]-2-[5-(2-methoxy-4-pyridyl)-1H-imidazol-2-yl]propanamide] was 0.49 µM; that for `Cc1n[nH]c(C)c1-c1ccc(NC(=O)C(c2nc(F)c(-c3ccccc3)[nH]2)C(C2CC2)C2CC2)cc1` (centres unmarked) [Example 72, 3,3-dicyclopropyl-N-[4-(3,5-dimethyl-1H-pyrazol-4-yl)phenyl]-2-(4-fluoro-5-phenyl-1H-imidazol-2-yl)propanamide] was 0.26 µM.

(Values after US20230227435A1, “SMALL MOLECULE MODULATORS OF IL-17” (LEO PHARMA A/S, priority 2020, published 2023).)
